The values that follow come from ChEMBL document CHEMBL1926660, “4-Aminoethylpiperazinyl aryl ketones with 5-HT₁A/5-HT₇ selectivity” (Bioorg Med Chem, 2012).

Test [1] has as its target T1, 5-hydroxytryptamine receptor 1A (Homo sapiens) (UniProt P08908).
T1 sequence (whole entry): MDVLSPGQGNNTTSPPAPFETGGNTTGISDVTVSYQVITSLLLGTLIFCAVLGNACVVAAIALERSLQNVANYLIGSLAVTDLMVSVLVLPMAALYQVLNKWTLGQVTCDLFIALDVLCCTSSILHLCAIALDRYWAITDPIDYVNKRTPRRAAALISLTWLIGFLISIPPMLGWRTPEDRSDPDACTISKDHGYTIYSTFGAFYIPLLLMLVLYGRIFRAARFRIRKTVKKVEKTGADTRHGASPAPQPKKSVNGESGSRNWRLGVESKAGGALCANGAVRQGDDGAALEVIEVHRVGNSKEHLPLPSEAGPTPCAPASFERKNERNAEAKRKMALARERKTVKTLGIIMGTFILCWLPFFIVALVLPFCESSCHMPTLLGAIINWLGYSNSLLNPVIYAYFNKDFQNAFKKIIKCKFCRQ
Briefly: Displacement of [3H]LSD from human 5-HT1A receptor expressed in CHO-K1 cells at 10 uM. Format: cell-based.

Test [2] has as its target 5-hydroxytryptamine receptor 7 (Homo sapiens) (UniProt P34969). Briefly: Displacement of […] from human 5-HT7 receptor expressed in HEK293 cells at 10 uM. The format is cell-based.

Each structure is given as a SMILES string.

Chain of 5-hydroxytryptamine receptor 7 (Homo sapiens) (P34969 whole entry): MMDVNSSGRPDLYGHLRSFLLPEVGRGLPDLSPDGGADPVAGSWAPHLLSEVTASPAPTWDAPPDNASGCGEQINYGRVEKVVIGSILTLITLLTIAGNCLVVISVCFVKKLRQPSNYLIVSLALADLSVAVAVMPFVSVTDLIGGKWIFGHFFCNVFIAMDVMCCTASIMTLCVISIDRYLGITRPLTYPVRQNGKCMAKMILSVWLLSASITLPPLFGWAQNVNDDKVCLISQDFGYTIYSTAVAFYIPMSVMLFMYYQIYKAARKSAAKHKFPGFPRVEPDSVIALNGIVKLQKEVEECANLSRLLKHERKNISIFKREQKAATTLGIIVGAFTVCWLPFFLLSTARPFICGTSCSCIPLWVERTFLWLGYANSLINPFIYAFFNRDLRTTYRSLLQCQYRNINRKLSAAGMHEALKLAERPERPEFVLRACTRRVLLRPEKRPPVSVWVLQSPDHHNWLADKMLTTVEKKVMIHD

For the compound `O=C(c1cc(C(F)(F)F)cc(C(F)(F)F)c1)N1CCN(CCNCCCc2nc3ccccc3[nH]2)CC1`, the results for the inhibition in test [1] and in test [2] were 87.7% and 45.4%, respectively.

With `CC(C)c1cc(CNCCN2CCN(C(=O)c3cc(C(F)(F)F)cc(C(F)(F)F)c3)CC2)on1`, the inhibition was 13% in test [1] and -0.3% in test [2].

As to `CC(C)(C)CCNCCN1CCN(C(=O)c2ccc(Cl)cc2)CC1`, the inhibition is 36.7% in test [1] and -0.6% in test [2].

Take `O=C(c1ccc(Cl)c(Cl)c1)N1CCN(CCNCCCc2nc3ccccc3[nH]2)CC1`: the inhibition in test [1] was found to be 49.5%; in test [2], 56.2%.

Turning to `O=C(c1ccc(Cl)cc1)N1CCN(CCNCCCc2nc3ccccc3[nH]2)CC1`, the inhibition in test [1] was 47.5%; in test [2] it was 36.8%.

In the case of `CC(C)(C)CCNCCN1CCN(C(=O)c2cc(C(F)(F)F)cc(C(F)(F)F)c2)CC1`, the inhibition is -4.4% in test [1] and -0.3% in test [2].

For `O=C(c1cc(Cl)cc(Cl)c1)N1CCN(CCNCCCc2nc3ccccc3[nH]2)CC1`, the values for the inhibition in test [1] and in test [2] were 90.1% and 62.7%, respectively.

As to `CC(C)c1cc(CNCCN2CCN(C(=O)c3cc(Cl)cc(Cl)c3)CC2)on1`, the inhibition in test [1] is 43.2%; in test [2], -0.2%.

Consider `CC(C)c1cc(CNCCN2CCN(C(=O)c3ccc(Cl)c(Cl)c3)CC2)on1`, for which the inhibition was found to be 76.4% in test [1] and 16.1% in test [2].

With `CC(C)(C)CCNCCN1CCN(C(=O)c2ccc(Cl)c(Cl)c2)CC1`, the inhibition in test [1] worked out at 65.2%; in test [2] it was 2%.

As for `CC(C)c1cc(CNCCN2CCN(C(=O)c3ccc(Cl)cc3)CC2)on1`, the inhibition was determined as 56.5% in test [1] and 93.6% in test [2].

On to `CC(C)(C)CCNCCN1CCN(C(=O)c2cc(Cl)cc(Cl)c2)CC1`, for which the values for the inhibition in test [1] and in test [2] were 33.7% and -0.6%, respectively.
